Legend:
Format in all cases: cell-based
[1] = test system: IL-1β production by macrophages; assay: LPS-induced production of IL-1β by macrophages treated with IKK inhibitors; settings: pharmacological RIPK1 inhibition
[2] = test system: murine cancer cell lines M108, M191, BSQ10, BSQ12.4, BSQ27, BWQ89.3; assay: Cell viability (CellTiterGlo), IKK2 inhibitors with or without Nec1s and/or ABT-199, FIG. 3 A-F; settings: 72 hrs; for synergistic killing of cancer cell lines (cell viability): ABT-199 combined with an IKK2 inhibitor (ML120B, BI605906 or PS1145), FIG. 3
Method: (§1) Murine (A-F) and human (G) cell lines were treated with IKK2 inhibitors in the absence or presence of a RIPK1 inhibitor and/or a BCL-2 inhibitor as indicated. Cell viability was measured after 72 hrs using CellTiterGlo assay. The data points represent mean values of independent experiments. A. The murine cell line M108 was treated with the IKK2 inhibitors ML120B, BI605906 and PS1145 in the absence or presence of the RIPK1 inhibitor Nec1s (10 μM or 20 μM, as indicated) and/or the BCL-2 inhibitor ABT-199 (125 nM or 250 nM as indicated). B. The murine cell line M191 was treated with the IKK2 inhibitors ML120B, PS1145 and BI605906 in the absence or presence of the RIPK1 inhibitor Nec1s (10 μM or 20 μM, as indicated) and/or the BCL-2 inhibitor ABT-199 (125 nM or 250 nM as indicated). C. The murine cell line BSQ10 was treated with the IKK2 inhibitors ML120B, PS1145 and BI605906 in the absence or presence of the RIPK1 inhibitor Nec1s (10 μM or 20 μM, as indicated) and/or the BCL-2 inhibitor ABT-199 (125 nM or 250 nM as indicated). D. The murine cell line BSQ12.4 was treated with the IKK2 inhibitors ML120B, PS1145 and BI605906 in the absence or presence of the RIPK1 inhibitor Nec1s (10 μM or 20 μM, as indicated) and/or the BCL-2 inhibitor ABT-199 (125 nM or 250 nM as indicated). E. The murine cell line BSQ27 was treated with the IKK2 inhibitors ML120B, PS1145 and BI605906 in the absence or presence of the RIPK1 inhibitor Nec1s (10 μM or 20 μM, as indicated) and/or the BCL-2 inhibitor ABT-199 (125 nM or 250 nM as indicated). F. The murine cell line BWQ89.3 was treated with the IKK2 inhibitors ML120B, PS1145 and BI605906 in the absence or presence of the RIPK1 inhibitor Nec1s (10 μM or 20 μM, as indicated) and/or the BCL-2 inhibitor ABT-199 (125 nM or 250 nM as indicated). G. The human cell line HBL1 was treated with the IKK2 inhibitors ML120B, PS1145 and BI605906 in the absence or presence of the RIPK1 inhibitor Nec1s (10 μM or 20 μM, as indicated) and/or the BCL-2 inhibitor ABT-199 (125 nM or 250 nM as indicated).
(§2) The murine MBC M-191, M-190, M-108, and M-552 cell lines were generated by adopting cells from murine Myd88p.L252P/wt;R26LSL.BCL2/wt;CD19Cre/wt tumors to cell culture conditions. BSQ10, BSQ12.4 and BSQ27 are stable cell lines generated from Cd79 bp.Y195H/wt;Myd88p.L252P/wt;R26LSL.BCL2/wt;CD19Cre/wt tumors. BWQ89.3 is a stable cell line derived from a murine Prdm1flox/flox;Myd88p.L252P/wt;R26LSL.BCL2/wt;CD19Cre/wt tumor. The MBC cell lines are derived from tumors spontaneously developing in mice that B cell-specifically express the Myd88 p.L252P mutation (the murine orthologue of the human p.L265P) from the endogenous locus in combination with a strong BCL2 overexpression derived from a Rosa26 knock-in allele. Both MYD88 mutations and BCL2 overexpression are frequently found in ABC-DLBCL and Myd88p.L252P/wt;R26LSL.BCL2/wt;CD19Cre/wt animals (abbreviated MBC) develop an ABC-DLBCL-like disease with high NF-kB activation (17).
Murine cell lines (FIG. 3 A-F) were cultured in DMEM media (Gibco) containing 10% FCS, 1% penicillin/[…] (Gibco), 6 ml L-glutamine (200 mM, Gibco), 6 ml sodium pyruvate (100 mM, Gibco), 6 ml HEPES (1 M), 6 ml non-essential amino acids (100×, Gibco), and 50 μM 2-mercaptoethanol. […] Cell viability of murine and human cell lines was measured after 72 hrs using CellTiterGlo assay. […]

[3] = test system: human DLBCL cell line HBL1; assay: Cell viability (CellTiterGlo), IKK2 inhibitors with or without Nec1s and/or ABT-199, FIG. 3 G; settings: 72 hrs; for synergistic killing of cancer cell lines (cell viability): ABT-199 combined with an IKK2 inhibitor (ML120B, BI605906 or PS1145), HBL1, FIG. 3
Method: as §1
Murine cell lines (FIG. 3 A-F) were cultured in DMEM media (Gibco) containing 10% FCS, 1% penicillin/[…] (Gibco), 6 ml L-glutamine (200 mM, Gibco), 6 ml sodium pyruvate (100 mM, Gibco), 6 ml HEPES (1 M), 6 ml non-essential amino acids (100×, Gibco), and 50 μM 2-mercaptoethanol. Cells were plated in opaque 384-well plates at a density of 100.000 cells/ml (30 μl of culture volume) and treated with the indicated compounds dissolved in DMSO using a Tecan D300e digital dispenser. The human DLBCL cell line HBL1 (FIG. 3 G) was cultured in RPMI (Gibco) containing 20% FCS (Gibco) and 1% penicillin/[…] (Gibco) and treated with the indicated compounds dissolved in DMSO using a Tecan D300e digital dispenser. Cell viability of murine and human cell lines was measured after 72 hrs using CellTiterGlo assay. The data points represent mean values of independent experiments.

[4] = test system: MBC M-191, M-190, M-108, and M-552 cell lines (murine ABC-DLBCL cell lines); assay: Cell viability (CellTiter-Glo), single inhibitors; settings: single agent, 72 hours, FIG. 1
Method: The murine MBC lines M-191, M-190, M-108 and M-552 were treated with (A) the IKK2 inhibitor LY-2409881 (0, 0.185, 0.556, 1.667, 5, 15 μM) or (B) the BCL-2 inhibitor ABT-199 (0, 11.1, 33.3, 100, 300 nM) for 72 hours and cell viability was measured by CellTiter-Glo®. The illustrations in FIG. 1 represent three independent experiments.
as §2, with “(17). […]” for “(17).”

[5] = test system: murine MBC cell lines M-108, M-191, and M-552; assay: Cell viability (CellTiter-Glo), ABT-199 and/or ML120B; settings: ABT-199 combined with ML120B, 72 hours, M108, M191 and M552, FIG. 2
Method: The murine MBC lines M-191, M-190, M-108 and M-552 were treated with ABT-199 and/or IKK2-inhibitor ML120B at the indicated doses for 72 hours and cell viability was measured by CellTiter-Glo®. The illustrations in FIG. 2 represent two independent experiments. To test the pharmacological inhibition potential of IKK2 and BCL-2 to kill lymphoma cells, MBC M-191, M-190, M-108, and M-552 cell lines were cultured in DMEM media (Gibco) containing 10% FCS, 1% penicillin/[…] (Gibco), 6 ml L-glutamine (200 mM, Gibco), 6 ml sodium pyruvate (100 mM, Gibco), 6 ml HEPES (1 M), 6 ml non-essential amino acids (100×, Gibco), 50 μM 2-mercaptoethanol. Then, cell viability assays were used to test the pharmacological inhibition potential of IKK2 (using the inhibitor LY2409881) and BCL-2 (using the inhibitor ABT-199) to kill the MBC M-191, M-190, M-108, and M-552 cell lines. […] After an incubation time of 15 minutes, the luminescence signal was read on a plate reader (Tecan). All conditions were measured in triplicate, randomized across the plate and the DMSO concentration in each well was adjusted to maximum DMSO concentration (0.4%) in all wells, and normalized to untreated conditions. […]

Compound	synergistic killing of cancer cell lines (cell viability) [2]	synergistic killing of cancer cell lines (cell viability) [3]	synergistic killing of cancer cell lines (cell viability) [5]	also measured
CN1C(=O)C(Cc2c[nH]c3ccccc23)NC1=S (centres unmarked) [Necrostatin-1, 5-(1H-indol-3-ylmethyl)-3-methyl-2-thioxo-4-imidazolidinone]	–	–	–	LPS-induced production of IL-1β [1]: strongly diminishes
O=C(Nc1cc(Cl)cc2c1[nH]c1cnccc12)c1cccnc1 [PS1145]	synergize to potentiate killing	synergize to potentiate killing	–	–
CC1(C)CCC(CN2CCN(c3ccc(C(=O)NS(=O)(=O)c4ccc(NCC5CCOCC5)c([N+](=O)[O-])c4)c(Oc4cnc5[nH]ccc5c4)c3)CC2)=C(c2ccc(Cl)cc2)C1 [ABT-199]	synergize to potentiate killing	synergize to potentiate killing	synergize to potentiate killing	killing of lymphoma cells (cell viability) [4]: strong toxicity
CN1C(=O)NC(Cc2c[nH]c3c(Cl)cccc23)C1=O (centres unmarked) [Nec1s, 5-((7-chloro-1H-indol-3-yl)methyl)-3-methyl-2,4-imidazolidinedione]	–	–	–	effect of simultaneous RIPK1 inhibitor treatment on the synergizing killing effect of ABT-199 and IKK2 inhibitors ([2]; Nec1s 10 μM or 20 μM): not prevented; effect of simultaneous RIPK1 inhibitor treatment on the synergizing killing effect of ABT-199 and IKK2 inhibitors ([3]; Nec1s 10 μM or 20 μM, HBL1): not prevented
CCC(F)(F)c1cc(N2CCC(S(C)(=O)=O)CC2)nc2sc(C(N)=O)c(N)c12 [BI605906]	synergize to potentiate killing	synergize to potentiate killing	–	–
COc1c(Cl)cc2c([nH]c3cnccc32)c1NC(=O)c1cccnc1C [ML120B, N-(6-chloro-7-methoxy-9H-beta-carbolin-8-yl)-2-methylnicotinamide]	synergize to potentiate killing	synergize to potentiate killing	synergize to potentiate killing	–
